Data set [1] in a line: Immunocytochemical analysis of brain for GM6 with anti-6mer antibody. Type of data set: in vivo, C57BL/6 mice. The settings on record: 0.2 or 2 mg/kg IV. As for the experimental part:
C57BL6 mice were injected with GM6 at the indicated doses and examined for GM6 in the brain. Half of the brain was taken for immunocytochemical analysis for GM6, the other half (brain) was frozen for ELISA analysis.
Animals were acclimated for 1 week prior to experimentation. The animals were bolus i.v. dosed via tail vein with vehicle or GM6 at 0.2 or 2 mg/kg. […] Vehicle control received saline solution.
The immunocytochemical stained area in each section was determined with a computer-assisted image analysis system, consisting of a Power Macintosh computer equipped with a Quick Capture frame grabber card, Hitachi CCD camera mounted on an Olympus microscope and camera stand. NIH Image Analysis Software, v. 1.55 was used. The images were captured and the total area of GM6 peptide was determined over the ten sections.

Data set [2] deals with primary rat neuronal cell cultures. The data set is classed as cell-based. How it is done:
Sprague Dawley rat cortical neuronal cells were isolated from 18-day-old embryonic fetuses and growth in culture for 12 days. Post mortem CSF from control and various neurological disorders donors were applied to the cultures and examined for neuronal viability. In addition, MNTF was added to the cultures to protect the cells from injury.
Neuronal cultures were prepared from 18-day-old Sprague-Dawley rat fetuses. Fetal rat midbrains were dissected and incubated for 15 min in a solution of 2 mg/mL trypsin in Ca2+- and Mg2+-free Hanks' balanced salt solution (HBSS) buffered with 10 mM HEPES (GIBCO Life Technologies, Paisley, Scotland). The tissue was then exposed for 2 min to soybean trypsin inhibitor (1 mg/mL in HBSS) and rinsed three times in HBSS. Cells were dissociated by trituration and distributed to 96-well or 24-well poly-L-lysine-coated plastic culture plates (Costar, Cambridge, Mass.). Initial plating densities were approximately 160-180 cells/mm2. At the time of plating, each well contained 0.2 ml of DMEM/F12 medium (GIBCO Life Technologies, NY) supplemented with 100 mL/L fetal bovine serum (Sigma Chemicals, St. Louis, Mo.). After a 24-hr period, the DMEM/F12 medium was replaced with 0.15 mL of 2% v/v B-27 Neurobasal medium supplemented with 2 mM GlutaMAX and 0.5% w/v D-(+) glucose (GIBCO Life Technologies). Twice a week, two-thirds of the Neurobasal medium was replaced with freshly prepared medium of the same composition. Cultures were used for neurotoxicity experiments after 12 days in culture. The research investigators at NTS were unaware of the material prior to, during the study and when the preliminary data were presented to the Sponsor (GB).
UCLA Human Brain and Spinal Fluid Resource Center (Los Angeles, Calif.) supplied the post mortem CSF samples from five donors of each of the nine study groups along with identification and clinical diagnosis and neuropathology diagnosis documents. Samples were stored at −170° C. prior to shipment and were shipped with dry ice. The study groups were control (no neurological disorder), Amyotrophic Lateral Sclerosis (ALS), Neuropathy (NP), Multiple Sclerosis (MS), Alzheimer's Disease (AD), Batten's Disease (BD), Huntington's Disease (HD), Parkinson's Disease (PD), and Cerebral Ischemia (stroke).
To test the effects of CSF on neuronal cell survival, CSF was added to the cultures in Neurobasal medium containing 10% CSF. CSF was added to the cultures and examined after 48 hours. Images of cultures were taken and then the cultures were subjected to MTT assay (see below) to determine the % cell death. Additional cultures were incubated with MNTF (100 nM) added to the cultures 2 hours prior to addition of CSF.
MTT assay. Viability of primary neurons was determined as described. The relative number of surviving cells was determined in triplicate using the value for cells stimulated with vehicles as 100%. Cell survival was assessed on the 2nd day of treatment via an MTT assay. MTT (3-[4,5-dimethylthiazol-2-yl]-2,5-diphenyltetrazolium bromide) was diluted to […] in Hanks' solution (Biochrom) and added to cultures for two hours at 37° C. The MTT formazan product was released from the cells by adding dimethylsulfoxide, and measured at 570 nm in an Ultrospect III spectrophotometer (Pharmacia). Relative survival in comparison to untreated controls could then be determined.

For data set [3], the system named is middle cerebral artery occlusion (MCAO) mouse model. The experiment in a line: MCAO mouse model, 1 hour ischemia and 14 days reperfusion, time of first dose varied. Type of data set: in vivo, C57BL/6 mice. To be noted: 5 mg/kg IV. How it is done: The MABP and heart rate was recorded using a Visitech System blood pressure monitor.
Formulation of GM602 (CS Bio Co., Menlo Park, Calif., CS1507, GMP013, lot C811) was performed by NTS as a stock solution by reconstituting GM602 with (100%) saline that was stored at 4° C. Vehicle control received saline solution. The bolus IV injections via tail with GM602 was initiated at times of 0, 3, 6, 12 and 24 hours after the start of reperfusion and subsequently every day for 3 days following injury.
This study involved a transient model of ischemia. […] After the nylon suture was in place for 1 hour, it was pulled back into the ECA and the incision closed.
. […] The brains were removed and chilled for 15 minutes at −20° C. before being placed in a Rodent Brain Matrix. Coronal sections (1-mm thickness) were prepared and subjected to 2% triphenyltetrazolium chloride (TTC) staining at 37° C. Seven serial one-mm thick coronal sections through the rostral to caudal extent of the infarction were obtained from each brain, beginning two-mm from the frontal pole. […] The infarct area in each section was determined with a computer-assisted image analysis system, consisting of a Power Macintosh computer equipped with a Quick Capture frame grabber card, Hitachi CCD camera mounted on an Olympus microscope and camera stand. […] The images were captured and the total area of damage determined over the seven sections.

A further data set is described as follows: Safety in animal studies. Type of data set: in vivo. To be noted: over 1000 Sprague Dawley rats and 15 of both wobbler mice and normal littermates.

Where two headings read alike, the source gives them in different places. Ends that are not written are not given here.

Consider FSRYAR [GM6, FSRYAR], for which the “immunoreactivity for GM6 in brain tissue” value in data set [1] is “No immunoreactivity was detected”. Further, the “% increase (↑) in cell survival” value is recorded as 191% in data set [2] (AD CSF + 100 nM MNTF vs AD CSF); 175% in data set [2] (ALS CSF + 100 nM MNTF vs ALS CSF); 271% in data set [2] (HD CSF + 100 nM MNTF vs HD CSF); 246% in data set [2] (MS CSF + 100 nM MNTF vs MS CSF); 198% in data set [2] (PD CSF + 100 nM MNTF vs PD CSF); 205% in data set [2] (Stroke CSF + 100 nM MNTF vs Stroke CSF). Moreover, the “changes in CBF, HR, BP, pO2, pCO2, or pH” value in data set [3] is “no changes”. Also, in the data set “Safety in animal studies”, the “safety problems in animal studies” value is “No safety problems were identified”.
